Results on 13 compounds are retold here after patent US12404239B2, “Modulators of BCL6 as ligand directed degraders” (Celgene Corporation, priority 2022, dated 2025).

This assay addresses T1, BCL6 (Homo sapiens, UniProt P41182).
T1 construct: HiBiT-tag knocked into endogenous BCL6 locus using CRISPR; endogenous in cells; host or cells: DHL-4_BCL6_HiBiT cells (CRISPR knock-in)
In words: BCL6_HiBiT degradation assay (2 h). Particulars: DHL-4_BCL6_HiBiT cells, read-out: YCon (% remaining maximal effect). The class given is cell-based. A digest of the protocol: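 DHL-4 cells carrying CRISPR HiBiT knock-in at endogenous BCL6, treated 2 h at 37 °C with 10-point 3-fold dilutions from 1-10 μM. BCL6 level read by Nano-Glo HiBiT lytic luminescence normalized to DMSO; four-parameter fit gives degradation EC50 and Yconstant (% remaining at maximal effect).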
Background: HiBiT is a short tag that completes a luciferase, so light tracks the accessible tagged protein.
For `C[C@@H]1CN(c2ncc(Cl)c(Nc3ccc4c(c3)CC(=O)N4C)n2)CC[C@H]1Nc1ccc2c(-n3cc(F)c(=O)[nH]c3=O)nn(C)c2c1` [Example 140, 1-(6-(((3R,4R)-1-(5-chloro-4-((1-methyl-2-oxoindolin-5-yl)amino)pyrimidin-2-yl)-3-methylpiperidin-4-yl)amino)-1-methyl-1H-indazol-3-yl)-5-fluoropyrimidine-2,4(1H,3H)-dione], the Percent BCL6 remaining at maximal degradation (Ycon) is less than 20%. With `C[C@@H]1CN(c2ncc(Cl)c(Nc3ccc4c(c3)CC(=O)N4C)n2)CC[C@H]1Nc1ccc2c(N3CCC(=O)NC3=O)nn(C)c2c1` [Example 141, 1-(6-(((3R,4R)-1-(5-chloro-4-((1-methyl-2-oxoindolin-5-yl)amino)pyrimidin-2-yl)-3-methylpiperidin-4-yl)amino)-1-methyl-1H-indazol-3-yl)dihydropyrimidine-2,4(1H,3H)-dione], the Percent BCL6 remaining at maximal degradation (Ycon) is less than 20%. For `C[C@@H]1CN(c2ncc(Cl)c(Nc3ccc4c(c3F)CC(=O)N4C)n2)CC[C@H]1Nc1ccc2c(N3CCC(=O)NC3=O)nn(C)c2c1` [Example 142, 1-(6-(((3R,4R)-1-(5-chloro-4-((4-fluoro-1-methyl-2-oxoindolin-5-yl)amino)pyrimidin-2-yl)-3-methylpiperidin-4-yl)amino)-1-methyl-1H-indazol-3-yl)dihydropyrimidine-2,4(1H,3H)-dione], the Percent BCL6 remaining at maximal degradation (Ycon) is less than 20%. In the case of `C[C@@H]1CN(c2ncc(Cl)c(Nc3cnc4c(c3)CC(=O)N4C)n2)CC[C@H]1Nc1ccc2c(N3CCC(=O)NC3=O)nn(C)c2c1` [Example 143, 1-(6-(((3R,4R)-1-(5-chloro-4-((1-methyl-2-oxo-2,3-dihydro-1H-pyrrolo[2,3-b]pyridin-5-yl)amino)pyrimidin-2-yl)-3-methylpiperidin-4-yl)amino)-1-methyl-1H-indazol-3-yl)dihydropyrimidine-2,4(1H,3H)-dione], the Percent BCL6 remaining at maximal degradation (Ycon) was less than 20%. In the case of `CCN1C(=O)Cc2cc(Nc3nc(N4CCC(Nc5ccc6c(N7CCC(=O)NC7=O)nn(C)c6c5)CC4)ncc3Cl)ccc21` [Example 144, 1-(6-((1-(5-chloro-4-((1-ethyl-2-oxoindolin-5-yl)amino)pyrimidin-2-yl)piperidin-4-yl)amino)-1-methyl-1H-indazol-3-yl)dihydropyrimidine-2,4(1H,3H)-dione] it was greater than 60%. In the case of `CO[C@@H]1CN(c2ncc(Cl)c(Nc3ccc4c(c3)CC(=O)N4C)n2)CC[C@H]1Nc1ccc2c(C3CCC(=O)NC3=O)nn(C)c2c1` (stereo partly drawn) [Example 146, 3-(6-(((3R,4R)-1-(5-chloro-4-((1-methyl-2-oxoindolin-5-yl)amino)pyrimidin-2-yl)-3-methoxypiperidin-4-yl)amino)-1-methyl-1H-indazol-3-yl)piperidine-2,6-dione] it was 20 to 60%; in that of `C[C@H]1CN(c2ccc3c(C4CCC(=O)NC4=O)nn(C)c3c2)C(=O)C[C@H]1N(C)c1ncc(Cl)c(Nc2ccc3c(c2)CC(=O)N3C)n1` (stereo partly drawn) [Example 149, 3-(6-((4R,5S)-4-((5-chloro-4-((1-methyl-2-oxoindolin-5-yl)amino)pyrimidin-2-yl)(methyl)amino)-5-methyl-2-oxopiperidin-1-yl)-1-methyl-1H-indazol-3-yl)piperidine-2,6-dione], 20 to 60%; in that of `CO[C@@H]1CN(c2ncc(Cl)c(Nc3ccc4c(c3)CC(=O)N4C)n2)CC[C@H]1Nc1ccc2c(C3(C)CCC(=O)NC3=O)nn(C)c2c1` (stereo partly drawn) [Example 154, 3-(6-(((3R,4R)-1-(5-chloro-4-((1-methyl-2-oxoindolin-5-yl)amino)pyrimidin-2-yl)-3-methoxypiperidin-4-yl)amino)-1-methyl-1H-indazol-3-yl)-3-methylpiperidine-2,6-dione], 20 to 60%. In the case of `CO[C@@H]1CN(c2ncc(C#N)c(Nc3ccc4c(c3)CC(=O)N4C)n2)CC[C@H]1Nc1ccc2c(C3(C)CCC(=O)NC3=O)nn(C)c2c1` (stereo partly drawn) [Example 155, 2-((3R,4R)-3-methoxy-4-((1-methyl-3-(3-methyl-2,6-dioxopiperidin-3-yl)-1H-indazol-6-yl)amino)piperidin-1-yl)-4-((1-methyl-2-oxoindolin-5-yl)amino) pyrimidine-5-carbonitrile] it was 20 to 60%; in that of `CO[C@@H]1CN(c2ncc(Cl)c(Nc3ccc4c(c3)CC(=O)N4C)n2)CC[C@H]1Nc1ccc2c(N3CCC(=O)NC3=O)nn(C)c2c1` [Example 156, 1-(6-(((3R,4R)-1-(5-chloro-4-((1-methyl-2-oxoindolin-5-yl)amino)pyrimidin-2-yl)-3-methoxypiperidin-4-yl)amino)-1-methyl-1H-indazol-3-yl) dihydropyrimidine-2,4(1H,3H)-dione], 20 to 60%.

As to `CO[C@@H]1CN(c2ncc(C#N)c(Nc3ccc4c(c3)CC(=O)N4C)n2)CC[C@H]1Nc1ccc2c(N3CCC(=O)NC3=O)nn(C)c2c1` [Example 157, 2-((3R,4R)-4-((3-(2,4-dioxotetrahydropyrimidin-1(2H)-yl)-1-methyl-1H-indazol-6-yl)amino)-3-methoxypiperidin-1-yl)-4-((1-methyl-2-oxoindolin-5-yl)amino) pyrimidine-5-carbonitrile], the Percent BCL6 remaining at maximal degradation (Ycon) lay in the range of 20 to 60%. In the case of `CO[C@@H]1CN(c2nc(F)c(Cl)c(Nc3ccc4c(c3)CC(=O)N4C)n2)CC[C@H]1Nc1ccc2c(N3CCC(=O)NC3=O)nn(C)c2c1` [Example 158, 1-(6-(((3R,4R)-1-(5-chloro-4-fluoro-6-((1-methyl-2-oxoindolin-5-yl)amino)pyrimidin-2-yl)-3-methoxypiperidin-4-yl)amino)-1-methyl-1H-indazol-3-yl) dihydropyrimidine-2,4(1H,3H)-dione], the Percent BCL6 remaining at maximal degradation (Ycon) fell in the range of 20 to 60%.

Turning to `CO[C@@H]1CN(c2nc(F)c(Cl)c(Nc3ccc4c(c3)CC(=O)N4C)n2)CC[C@H]1Nc1ccc2c(C3(C)CCC(=O)NC3=O)nn(C)c2c1` (stereo partly drawn) [Example 159, 3-(6-(((3R,4R)-1-(5-chloro-4-fluoro-6-((1-methyl-2-oxoindolin-5-yl)amino)pyrimidin-2-yl)-3-methoxypiperidin-4-yl)amino)-1-methyl-1H-indazol-3-yl)-3-methylpiperidine-2,6-dione], the Percent BCL6 remaining at maximal degradation (Ycon) lay in the range of 20 to 60%.
